Each compound was assayed against Human factor D (Homo sapiens (Human), UniProt P00746) (assay: Human Factor D Assay). Details: Human factor D 80 nM, substrate Z-L-Lys-SBzl and DTNB 100 μM each, pH 7.5.
Assay type: biochemical
Description: Example 14. Human Factor D Assay
Human factor D (purified from human serum, Complement Technology, Inc.) at 80 nM final concentration is incubated with test compound at various concentrations for 5 minutes at room temperature in 50 mM Tris, 1M NaCl, pH 7.5. A synthetic substrate Z-L-Lys-SBzl and DTNB (Ellman's reagent) are added to final concentrations of 100 μM each. The increase in color is recorded at OD405 nm in a microplate in kinetic mode over 30 minutes with 30 second time points in a spectrofluorimeter. IC50 values are calculated by non-linear regression from the percentage of inhibition of complement factor D activity as a function of test compound concentration.

Human factor D, sequence (P00746 26-253): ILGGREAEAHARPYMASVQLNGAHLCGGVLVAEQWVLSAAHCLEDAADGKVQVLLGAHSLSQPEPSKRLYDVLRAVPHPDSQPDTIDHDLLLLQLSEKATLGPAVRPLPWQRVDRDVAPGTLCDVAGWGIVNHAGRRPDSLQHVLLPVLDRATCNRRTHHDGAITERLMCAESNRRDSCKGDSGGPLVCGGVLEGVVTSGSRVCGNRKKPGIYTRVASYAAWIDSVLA

| Compound | IC50 [nM] |
| --- | --- |
| NC(=O)c1nn(CC(=O)N2[C@@H]3C[C@@H]3C[C@H]2C(=O)Nc2cccc(-c3ccccc3Cl)c2F)c2ccc(NC(=O)N3CCCC(F)(F)C3)cc12 [Compound 28, 1-(2-((1R,3S,5R)-3-(2′-chloro-2-fluorobiphenyl-3-ylcarbamoyl)-2-azabicyclo[3.1.0]hexan-2-yl)-2-oxoethyl)-5-(3,3-difluoropiperidine-1-carboxamido)-1H-indazole-3-carboxamide] | < 1000 |
| NC(=O)c1nn(CC(=O)N2C[C@H](F)C[C@H]2C(=O)Nc2cccc(-c3ncccc3Cl)c2F)c2ccc(NC(=O)N3CCCC(F)(F)C3)cc12 [Compound 29, 1-(2-((2S,4R)-2-(3-(3-chloropyridin-2-yl)-2-fluorophenylcarbamoyl)-4-fluoropyrrolidin-1-yl)-2-oxoethyl)-5-(3,3-difluoropiperidine-1-carboxamido)-1H-indazole-3-carboxamide] | < 1000 |
| NC(=O)c1nn(CC(=O)N2C[C@H](F)C[C@H]2C(=O)Nc2cccc(-c3ccccc3Cl)c2F)c2ccc(NC(=O)N3CCC(F)(F)C3)cc12 [Compound 30, 1-(2-((2S,4R)-2-(2′-chloro-2-fluorobiphenyl-3-ylcarbamoyl)-4-fluoropyrrolidin-1-yl)-2-oxoethyl)-5-(3,3-difluoropyrrolidine-1-carboxamido)-1H-indazole-3-carboxamide] | < 1000 |
| NC(=O)c1nn(CC(=O)N2C[C@H](F)C[C@H]2C(=O)Nc2cccc(-c3ccccc3Cl)c2F)c2ccc(NC(=O)N3CCC(F)(F)CC3)cc12 [Compound 31, 1-(2-((2S,4R)-2-(2′-chloro-2-fluorobiphenyl-3-ylcarbamoyl)-4-fluoropyrrolidin-1-yl)-2-oxoethyl)-5-(4,4-difluoropiperidine-1-carboxamido)-1H-indazole-3-carboxamide] | < 1000 |
| NC(=O)c1nn(CC(=O)N2C[C@H](F)C[C@H]2C(=O)Nc2cccc(-c3ccccc3Cl)c2F)c2ccc(NC(=O)NCc3ncccn3)cc12 [Compound 32, 1-(2-((2S,4R)-2-(2′-chloro-2-fluorobiphenyl-3-ylcarbamoyl)-4-fluoropyrrolidin-1-yl)-2-oxoethyl)-5-(3-(pyrimidin-2-ylmethyl)ureido)-1H-indazole-3-carboxamide] | < 1000 |
| NC(=O)c1nn(CC(=O)N2C[C@H](F)C[C@H]2C(=O)Nc2cccc(Br)n2)c2ccc(NC(=O)N3CCCC(F)(F)C3)cc12 [Compound 33, 1-(2-((2S,4R)-2-(6-bromopyridin-2-ylcarbamoyl)-4-fluoropyrrolidin-1-yl)-2-oxoethyl)-5-(3,3-difluoropiperidine-1-carboxamido)-1H-indazole-3-carboxamide] | < 1000 |
| NC(=O)c1nn(CC(=O)N2[C@@H]3C[C@@H]3C[C@H]2C(=O)Nc2cccc(Br)n2)c2ccc(NC(=O)N3CCCC(F)(F)C3)cc12 [Compound 34, 1-(2-((1R,3S,5R)-3-(6-bromopyridin-2-ylcarbamoyl)-2-azabicyclo[3.1.0]hexan-2-yl)-2-oxoethyl)-5-(3,3-difluoropiperidine-1-carboxamido)-1H-indazole-3-carboxamide] | < 1000 |
| CC(=O)c1cn(CC(=O)N2C[C@H](F)C[C@H]2C(=O)Nc2cccc(-c3ccccc3Cl)c2F)c2ccc(NC(=O)C3CCC(F)(F)C3)cc12 (stereo partly drawn) [Compound 35, (2S,4R)-1-(2-(3-acetyl-5-(3,3-difluorocyclopentanecarboxamido)-1H-indol-1-yl)acetyl)-N-(2′-chloro-2-fluorobiphenyl-3-yl)-4-fluoropyrrolidine-2-carboxamide] | < 1000 |
| CC(=O)c1cn(CC(=O)N2C[C@H](F)C[C@H]2C(=O)Nc2cccc(-c3ccccc3Cl)c2F)c2ccc(NC(=O)CC(F)(F)F)cc12 [Compound 36, (2S,4R)-1-(2-(3-acetyl-5-(3,3,3-trifluoropropanamido)-1H-indol-1-yl)acetyl)-N-(2′-chloro-2-fluorobiphenyl-3-yl)-4-fluoropyrrolidine-2-carboxamide] | < 1000 |
| CC(=O)c1cn(CC(=O)N2C[C@H](F)C[C@H]2C(=O)NCc2cccc(Cl)c2F)c2cc(NC(=O)OC(C)(C)C)ccc12 [Compound 37, tert-butyl 3-acetyl-1-(2-((2S,4R)-2-(3-chloro-2-fluorobenzylcarbamoyl)-4-fluoropyrrolidin-1-yl)-2-oxoethyl)-1H-indol-6-ylcarbamate] | < 1000 |
| CC(=O)c1cn(CC(=O)N2C[C@H](F)C[C@H]2C(=O)NCc2cccc(Cl)c2F)c2ccc(C(=O)N3CC=C(B(O)O)CC3)cc12 [Compound 38, 1-(3-acetyl-1-(2-((2S,4R)-2-(3-chloro-2-fluorobenzylcarbamoyl)-4-fluoropyrrolidin-1-yl)-2-oxoethyl)-1H-indole-5-carbonyl)-1,2,3,6-tetrahydropyridin-4-ylboronic acid] | < 1000 |
| CC(=O)c1cn(CC(=O)N2C[C@H](F)C[C@H]2C(=O)NCc2cccc(Cl)c2F)c2ccc(C(=O)N3CC4CCC3C4)cc12 (stereo partly drawn) [Compound 39, (2S,4R)-1-(2-(3-acetyl-5-(2-azabicyclo[2.2.1]heptane-2-carbonyl)-1H-indol-1-yl)acetyl)-N-(3-chloro-2-fluorobenzyl)-4-fluoropyrrolidine-2-carboxamide] | < 1000 |
| CC(=O)c1cn(CC(=O)N2C[C@H](F)C[C@H]2C(=O)NCc2cccc(Cl)c2F)c2ccc(C(=O)N3CCCC(F)(F)C3)cc12 [Compound 40, (2S,4R)-1-(2-(3-acetyl-5-(3,3-difluoropiperidine-1-carbonyl)-1H-indol-1-yl)acetyl)-N-(3-chloro-2-fluorobenzyl)-4-fluoropyrrolidine-2-carboxamide] | < 1000 |
| CC(=O)c1cn(CC(=O)N2C[C@H](F)C[C@H]2C(=O)NCc2cccc(Cl)c2F)c2ccc(C(=O)NC3CC3)cc12 [Compound 41, 3-acetyl-1-(2-((2S,4R)-2-(3-chloro-2-fluorobenzylcarbamoyl)-4-fluoropyrrolidin-1-yl)-2-oxoethyl)-N-cyclopropyl-1H-indole-5-carboxamide] | < 1000 |
| CC(=O)c1cn(CC(=O)N2C[C@H](F)C[C@H]2C(=O)NCc2cccc(Cl)c2F)c2cc(C(=O)N3CCC(CN)C3)ccc12 (stereo partly drawn) [Compound 42, (2S,4R)-1-(2-(3-acetyl-6-(3-(aminomethyl)pyrrolidine-1-carbonyl)-1H-indol-1-yl)acetyl)-N-(3-chloro-2-fluorobenzyl)-4-fluoropyrrolidine-2-carboxamide] | < 1000 |
| CC(=O)c1cn(CC(=O)N2C[C@H](F)C[C@H]2C(=O)NCc2cccc(Cl)c2F)c2cc(C(=O)NS(C)(=O)=O)ccc12 [Compound 43, 3-acetyl-1-(2-((2S,4R)-2-(3-chloro-2-fluorobenzylcarbamoyl)-4-fluoropyrrolidin-1-yl)-2-oxoethyl)-N-(methylsulfonyl)-1H-indole-6-carboxamide] | < 1000 |
| CC(=O)c1cn(CC(=O)N2C[C@H](F)C[C@H]2C(=O)NCc2cccc(Cl)c2F)c2cc(C(=O)N[C@H]3CCN(C(=O)OC(C)(C)C)C3)ccc12 [Compound 44, (S)-tert-butyl 3-(3-acetyl-1-(2-((2S,4R)-2-(3-chloro-2-fluorobenzylcarbamoyl)-4-fluoropyrrolidin-1-yl)-2-oxoethyl)-1H-indole-6-carboxamido) pyrrolidine-1-carboxylate] | < 1000 |
| CC(=O)c1cn(CC(=O)N2C[C@H](F)C[C@H]2C(=O)NCc2cccc(Cl)c2F)c2cc(C(=O)N[C@H]3CCNC3)ccc12 [Compound 45, 3-acetyl-1-(2-((2S,4R)-2-(3-chloro-2-fluorobenzylcarbamoyl)-4-fluoropyrrolidin-1-yl)-2-oxoethyl)-N-((S)-pyrrolidin-3-yl)-1H-indole-6-carboxamide] | < 1000 |
| CC(=O)c1cn(CC(=O)N2C[C@H](F)C[C@H]2C(=O)NCc2cccc(Cl)c2F)c2cc(C(=O)N[C@H]3CCN(C(C)=O)C3)ccc12 [Compound 46, 3-acetyl-N-((S)-1-acetylpyrrolidin-3-yl)-1-(2-((2S,4R)-2-(3-chloro-2-fluorobenzylcarbamoyl)-4-fluoropyrrolidin-1-yl)-2-oxoethyl)-1H-indole-6-carboxamide] | < 1000 |
| CC(=O)c1cn(CC(=O)N2C[C@H](F)C[C@H]2C(=O)NCc2cccc(Cl)c2F)c2cc(C(=O)NS(=O)(=O)C3CC3)ccc12 [Compound 48, 3-acetyl-1-(2-((2S,4R)-2-(3-chloro-2-fluorobenzylcarbamoyl)-4-fluoropyrrolidin-1-yl)-2-oxoethyl)-N-(cyclopropylsulfonyl)-1H-indole-6-carboxamide] | < 1000 |
| CC(=O)c1cn(CC(=O)N2C[C@H](F)C[C@H]2C(=O)NCc2cccc(Cl)c2F)c2cc(C(=O)NCC3CCNC3)ccc12 (stereo partly drawn) [Compound 49, 3-acetyl-1-(2-((2S,4R)-2-(3-chloro-2-fluorobenzylcarbamoyl)-4-fluoropyrrolidin-1-yl)-2-oxoethyl)-N-(pyrrolidin-3-ylmethyl)-1H-indole-6-carboxamide] | < 1000 |
| CC(=O)c1cn(CC(=O)N2C[C@H](F)C[C@H]2C(=O)NCc2cccc(Cl)c2F)c2cc(C(=O)NCC3CCN(C(=O)OC(C)(C)C)C3)ccc12 (stereo partly drawn) [Compound 50] | < 1000 |
| COC(=O)C1CCN(C(=O)c2ccc3c(C(C)=O)cn(CC(=O)N4C[C@H](F)C[C@H]4C(=O)NCc4cccc(Cl)c4F)c3c2)C1 (stereo partly drawn) [Compound 51, methyl 1-(3-acetyl-1-(2-((2S,4R)-2-(3-chloro-2-fluorobenzylcarbamoyl)-4-fluoropyrrolidin-1-yl)-2-oxoethyl)-1H-indole-6-carbonyl)pyrrolidine-3-carboxylate] | < 1000 |
| CC(=O)c1cn(CC(=O)N2C[C@H](F)C[C@H]2C(=O)NCc2cccc(Cl)c2F)c2cc(C(=O)N3CCC(C(=O)O)C3)ccc12 (stereo partly drawn) [Compound 52, 1-(3-acetyl-1-(2-((2S,4R)-2(3-chloro-2-fluorobenzylcarbamoyl)-4-fluoropyrrolidin-1-yl)-2-oxoethyl)-1H-indole-6-carbonyl) pyrrolidine-3-carboxylic acid] | < 1000 |
